Test results reported in ChEMBL document CHEMBL3991601, “The target landscape of clinical kinase drugs” (Science, 2017).
Calls of active or inactive are those of the source.

Assays:
[1] = target: Protein kinase C alpha type (Homo sapiens, UniProt P17252)
[2] = target: Epithelial discoidin domain-containing receptor 1 (Homo sapiens, UniProt Q08345)
[3] = target: Elongation factor Tu, mitochondrial (Homo sapiens, UniProt P49411)
[4] = target: Protein-tyrosine kinase 6 (Homo sapiens, UniProt Q13882)
Chain of Protein-tyrosine kinase 6 (Q13882 whole entry): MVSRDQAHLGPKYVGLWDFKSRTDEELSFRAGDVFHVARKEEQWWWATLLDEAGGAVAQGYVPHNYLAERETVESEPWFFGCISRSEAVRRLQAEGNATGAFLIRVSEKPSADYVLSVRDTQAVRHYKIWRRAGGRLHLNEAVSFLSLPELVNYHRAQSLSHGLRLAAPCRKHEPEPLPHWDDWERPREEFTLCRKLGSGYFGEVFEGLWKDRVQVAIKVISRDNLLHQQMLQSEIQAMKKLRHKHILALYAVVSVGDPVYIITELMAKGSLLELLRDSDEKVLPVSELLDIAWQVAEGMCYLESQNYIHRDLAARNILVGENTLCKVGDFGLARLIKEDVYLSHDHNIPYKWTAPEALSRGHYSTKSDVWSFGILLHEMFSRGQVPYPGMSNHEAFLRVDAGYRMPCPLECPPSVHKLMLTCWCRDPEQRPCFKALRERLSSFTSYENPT

[5] = target: GTP-binding protein 4 (Homo sapiens, UniProt Q9BZE4)
[6] = target: Mitogen-activated protein kinase 9 (Homo sapiens, UniProt P45984)
Chain of Mitogen-activated protein kinase 9 (P45984 whole entry): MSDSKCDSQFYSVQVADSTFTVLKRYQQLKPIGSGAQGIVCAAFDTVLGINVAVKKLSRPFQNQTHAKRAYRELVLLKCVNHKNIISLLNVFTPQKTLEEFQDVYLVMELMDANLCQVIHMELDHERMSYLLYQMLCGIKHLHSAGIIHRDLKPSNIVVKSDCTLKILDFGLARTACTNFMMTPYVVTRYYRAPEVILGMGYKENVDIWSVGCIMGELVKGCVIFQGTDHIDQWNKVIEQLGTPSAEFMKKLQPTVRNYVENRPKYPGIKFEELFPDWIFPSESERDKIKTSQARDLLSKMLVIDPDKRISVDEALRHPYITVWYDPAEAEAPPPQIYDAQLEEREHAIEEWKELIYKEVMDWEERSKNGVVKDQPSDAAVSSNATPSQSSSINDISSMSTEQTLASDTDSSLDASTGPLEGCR

[7] = target: T1, Glycogen phosphorylase, brain form (Homo sapiens, UniProt P11216)
T1 sequence (P11216 whole entry): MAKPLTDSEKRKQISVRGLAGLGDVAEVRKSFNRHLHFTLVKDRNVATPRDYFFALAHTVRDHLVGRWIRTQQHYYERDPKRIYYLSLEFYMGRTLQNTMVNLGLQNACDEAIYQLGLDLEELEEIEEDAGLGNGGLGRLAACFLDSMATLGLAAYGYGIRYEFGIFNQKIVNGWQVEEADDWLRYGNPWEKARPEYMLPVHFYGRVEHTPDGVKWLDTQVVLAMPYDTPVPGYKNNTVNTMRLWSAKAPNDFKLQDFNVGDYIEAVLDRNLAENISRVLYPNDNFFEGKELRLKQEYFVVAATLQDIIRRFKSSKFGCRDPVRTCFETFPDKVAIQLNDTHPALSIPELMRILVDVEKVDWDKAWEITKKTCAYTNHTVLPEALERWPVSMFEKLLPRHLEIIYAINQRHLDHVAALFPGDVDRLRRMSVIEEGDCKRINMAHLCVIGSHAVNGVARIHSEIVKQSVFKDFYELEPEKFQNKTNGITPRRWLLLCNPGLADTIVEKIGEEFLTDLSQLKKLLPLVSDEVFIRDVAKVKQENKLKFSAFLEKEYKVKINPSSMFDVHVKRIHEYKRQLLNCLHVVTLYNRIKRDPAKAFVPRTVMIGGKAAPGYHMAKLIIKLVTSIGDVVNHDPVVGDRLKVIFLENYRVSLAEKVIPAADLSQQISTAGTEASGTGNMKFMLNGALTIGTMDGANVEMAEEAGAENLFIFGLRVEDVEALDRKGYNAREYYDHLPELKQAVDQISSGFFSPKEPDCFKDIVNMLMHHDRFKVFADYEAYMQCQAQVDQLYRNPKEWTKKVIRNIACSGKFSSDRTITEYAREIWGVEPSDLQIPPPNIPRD

[8] = target: T2, DNA replication licensing factor MCM4 (Homo sapiens, UniProt P33991)
T2 sequence (P33991 whole entry): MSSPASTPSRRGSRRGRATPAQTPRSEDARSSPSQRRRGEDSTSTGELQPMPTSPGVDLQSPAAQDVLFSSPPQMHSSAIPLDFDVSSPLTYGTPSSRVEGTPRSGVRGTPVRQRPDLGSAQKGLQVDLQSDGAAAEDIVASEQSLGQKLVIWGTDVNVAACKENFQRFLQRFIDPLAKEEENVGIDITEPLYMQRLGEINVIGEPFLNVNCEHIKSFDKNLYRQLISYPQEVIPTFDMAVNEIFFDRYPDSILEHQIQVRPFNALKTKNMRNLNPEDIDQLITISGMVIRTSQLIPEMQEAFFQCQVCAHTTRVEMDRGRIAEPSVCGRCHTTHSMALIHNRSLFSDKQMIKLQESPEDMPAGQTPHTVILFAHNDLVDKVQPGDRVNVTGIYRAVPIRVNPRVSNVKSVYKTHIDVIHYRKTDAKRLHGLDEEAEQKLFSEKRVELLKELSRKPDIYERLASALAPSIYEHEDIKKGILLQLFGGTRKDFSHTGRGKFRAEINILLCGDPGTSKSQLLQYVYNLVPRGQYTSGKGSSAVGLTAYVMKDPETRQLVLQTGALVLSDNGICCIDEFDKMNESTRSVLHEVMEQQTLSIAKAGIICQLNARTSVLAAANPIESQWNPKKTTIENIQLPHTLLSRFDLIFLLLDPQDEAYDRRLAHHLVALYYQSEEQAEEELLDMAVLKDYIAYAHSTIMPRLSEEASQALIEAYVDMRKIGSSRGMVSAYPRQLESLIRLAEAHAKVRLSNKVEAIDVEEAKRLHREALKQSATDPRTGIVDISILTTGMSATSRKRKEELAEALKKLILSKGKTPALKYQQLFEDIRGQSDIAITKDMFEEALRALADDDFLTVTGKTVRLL

[9] = target: Cyclin-dependent kinase 7 (Homo sapiens, UniProt P50613)
[10] = target: Myosin-10 (Homo sapiens, UniProt P35580)
Chain of Myosin-10 (P35580 whole entry): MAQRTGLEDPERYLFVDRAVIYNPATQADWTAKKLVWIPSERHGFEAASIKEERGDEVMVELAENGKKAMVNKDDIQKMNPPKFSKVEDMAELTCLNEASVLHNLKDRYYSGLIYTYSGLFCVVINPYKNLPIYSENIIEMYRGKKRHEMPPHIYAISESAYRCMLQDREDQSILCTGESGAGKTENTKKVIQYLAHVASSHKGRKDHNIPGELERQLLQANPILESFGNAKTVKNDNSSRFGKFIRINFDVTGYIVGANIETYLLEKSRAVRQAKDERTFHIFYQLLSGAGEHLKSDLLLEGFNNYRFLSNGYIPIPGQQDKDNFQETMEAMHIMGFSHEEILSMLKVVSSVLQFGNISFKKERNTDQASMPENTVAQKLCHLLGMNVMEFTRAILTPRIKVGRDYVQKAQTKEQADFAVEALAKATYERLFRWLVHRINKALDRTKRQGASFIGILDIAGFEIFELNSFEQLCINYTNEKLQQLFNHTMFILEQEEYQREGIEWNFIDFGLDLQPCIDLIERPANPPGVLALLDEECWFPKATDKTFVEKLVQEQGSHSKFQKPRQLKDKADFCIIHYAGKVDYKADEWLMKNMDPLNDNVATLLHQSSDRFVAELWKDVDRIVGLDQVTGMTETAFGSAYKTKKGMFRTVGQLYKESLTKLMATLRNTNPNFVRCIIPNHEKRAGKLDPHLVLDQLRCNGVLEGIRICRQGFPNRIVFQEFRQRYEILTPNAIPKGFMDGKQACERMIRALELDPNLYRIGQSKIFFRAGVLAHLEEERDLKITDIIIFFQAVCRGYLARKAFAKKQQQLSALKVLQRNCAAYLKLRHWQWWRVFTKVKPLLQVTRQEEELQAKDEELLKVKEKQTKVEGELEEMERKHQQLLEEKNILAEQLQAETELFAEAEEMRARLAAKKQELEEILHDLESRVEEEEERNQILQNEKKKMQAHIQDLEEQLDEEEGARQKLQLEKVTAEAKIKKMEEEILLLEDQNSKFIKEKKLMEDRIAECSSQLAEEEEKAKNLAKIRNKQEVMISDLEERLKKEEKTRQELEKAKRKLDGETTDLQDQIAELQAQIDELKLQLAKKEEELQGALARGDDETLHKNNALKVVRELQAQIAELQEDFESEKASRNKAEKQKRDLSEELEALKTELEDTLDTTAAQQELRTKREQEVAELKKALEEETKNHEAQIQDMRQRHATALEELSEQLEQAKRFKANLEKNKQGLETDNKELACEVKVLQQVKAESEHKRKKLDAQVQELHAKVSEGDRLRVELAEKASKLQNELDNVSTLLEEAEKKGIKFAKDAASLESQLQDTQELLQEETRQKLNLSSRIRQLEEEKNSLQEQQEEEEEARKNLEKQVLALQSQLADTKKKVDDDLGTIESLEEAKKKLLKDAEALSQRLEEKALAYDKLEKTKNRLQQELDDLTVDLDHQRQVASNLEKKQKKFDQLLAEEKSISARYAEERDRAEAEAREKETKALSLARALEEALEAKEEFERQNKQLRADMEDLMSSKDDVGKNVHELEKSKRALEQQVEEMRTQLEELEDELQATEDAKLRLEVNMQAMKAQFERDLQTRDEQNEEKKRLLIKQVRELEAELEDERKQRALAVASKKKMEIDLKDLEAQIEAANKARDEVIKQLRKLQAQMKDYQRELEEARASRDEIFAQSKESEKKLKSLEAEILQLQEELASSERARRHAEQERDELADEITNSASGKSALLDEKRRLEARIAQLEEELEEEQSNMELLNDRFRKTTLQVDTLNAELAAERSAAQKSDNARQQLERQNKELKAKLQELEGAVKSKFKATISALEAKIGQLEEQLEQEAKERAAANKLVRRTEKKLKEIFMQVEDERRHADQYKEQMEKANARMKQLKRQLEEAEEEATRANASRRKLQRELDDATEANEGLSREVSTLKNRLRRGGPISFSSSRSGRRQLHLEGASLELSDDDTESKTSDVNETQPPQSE

[11] = target: Mitogen-activated protein kinase 8 (Homo sapiens, UniProt P45983)
Chain of Mitogen-activated protein kinase 8 (P45983 whole entry, the tested form may be a part): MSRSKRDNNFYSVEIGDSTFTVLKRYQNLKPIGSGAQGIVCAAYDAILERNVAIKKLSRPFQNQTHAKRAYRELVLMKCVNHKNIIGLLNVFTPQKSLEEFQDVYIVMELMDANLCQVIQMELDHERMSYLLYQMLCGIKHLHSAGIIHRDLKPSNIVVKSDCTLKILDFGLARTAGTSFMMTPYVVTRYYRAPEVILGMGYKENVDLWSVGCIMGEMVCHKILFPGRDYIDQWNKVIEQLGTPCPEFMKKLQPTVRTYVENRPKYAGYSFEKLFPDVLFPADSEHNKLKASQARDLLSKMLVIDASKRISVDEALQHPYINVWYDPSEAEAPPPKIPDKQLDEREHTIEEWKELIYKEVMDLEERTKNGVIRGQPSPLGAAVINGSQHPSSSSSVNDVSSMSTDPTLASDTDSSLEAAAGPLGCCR

[12] = target: PAS domain-containing serine/threonine-protein kinase (Homo sapiens, UniProt Q96RG2)
Note: in the data inactive means no Kd found up to 30 µM.

Chain of Epithelial discoidin domain-containing receptor 1 (Q08345 whole entry, the tested form may be a part): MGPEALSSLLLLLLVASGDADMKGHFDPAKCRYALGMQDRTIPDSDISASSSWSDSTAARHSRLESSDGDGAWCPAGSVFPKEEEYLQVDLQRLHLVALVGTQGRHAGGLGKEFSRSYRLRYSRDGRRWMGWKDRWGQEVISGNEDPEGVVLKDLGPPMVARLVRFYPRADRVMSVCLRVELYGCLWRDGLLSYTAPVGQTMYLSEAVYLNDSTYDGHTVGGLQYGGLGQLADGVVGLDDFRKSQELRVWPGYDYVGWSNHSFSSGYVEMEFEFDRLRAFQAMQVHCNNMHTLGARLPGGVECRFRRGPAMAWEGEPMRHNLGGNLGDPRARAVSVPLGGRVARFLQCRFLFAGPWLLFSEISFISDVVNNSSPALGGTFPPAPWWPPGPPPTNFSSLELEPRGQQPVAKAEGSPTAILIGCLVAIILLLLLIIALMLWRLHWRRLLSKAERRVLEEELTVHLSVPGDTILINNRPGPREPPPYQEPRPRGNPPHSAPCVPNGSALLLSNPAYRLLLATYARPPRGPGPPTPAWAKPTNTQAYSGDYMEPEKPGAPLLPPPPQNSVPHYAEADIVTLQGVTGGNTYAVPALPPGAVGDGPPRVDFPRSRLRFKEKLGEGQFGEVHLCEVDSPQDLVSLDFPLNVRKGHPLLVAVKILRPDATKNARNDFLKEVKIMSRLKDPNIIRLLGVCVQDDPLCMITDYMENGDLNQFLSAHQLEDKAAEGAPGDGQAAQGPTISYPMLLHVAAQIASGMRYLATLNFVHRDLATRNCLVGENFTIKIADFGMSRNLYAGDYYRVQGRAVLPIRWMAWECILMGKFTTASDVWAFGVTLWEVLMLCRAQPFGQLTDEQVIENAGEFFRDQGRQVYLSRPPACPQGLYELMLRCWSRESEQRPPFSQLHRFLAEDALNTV

SMILES	Kd [1]	Kd [2]	Kd [3]	Kd [4]	Kd [5]	Kd [6]	Kd [7]	Kd [8]	Kd [9]	Kd [10]	Kd [11]	Kd [12]
Cc1nc2cc(-c3nn(C(C)C)c4ncnc(N)c34)ccc2o1	21.8 µM (active)	0.881 µM (active)	> 30 µM (inactive)	2.1 µM (active)	> 30 µM (inactive)	> 30 µM (inactive)	> 30 µM (inactive)	> 30 µM (inactive)	> 30 µM (inactive)	> 30 µM (inactive)	> 30 µM (inactive)	
Cc1csc(-c2nnc(Nc3ccc(Oc4ncccc4-c4ccnc(N)n4)cc3)c3ccccc23)c1 [AMG-900]	> 30 µM (inactive)	0.11 µM (active)	> 30 µM (inactive)	> 30 µM (inactive)	> 30 µM (inactive)	> 30 µM (inactive)	> 30 µM (inactive)	> 30 µM (inactive)	> 30 µM (inactive)	> 30 µM (inactive)	> 30 µM (inactive)	
CNC(=O)c1ccccc1Sc1ccc2c(/C=C/c3ccccn3)n[nH]c2c1 [AXITINIB]	> 30 µM (inactive)		> 30 µM (inactive)		> 30 µM (inactive)		> 30 µM (inactive)	> 30 µM (inactive)		> 30 µM (inactive)		> 30 µM (inactive)
COc1cc([C@@H]2c3cc4c(cc3[C@H](O)[C@H]3COC(=O)[C@@H]23)OCO4)cc(OC)c1OC [AXL-1717]	> 30 µM (inactive)	> 30 µM (inactive)	> 30 µM (inactive)	> 30 µM (inactive)	> 30 µM (inactive)	> 30 µM (inactive)	> 30 µM (inactive)	> 30 µM (inactive)	> 30 µM (inactive)	> 30 µM (inactive)	> 30 µM (inactive)	
COCC(=O)NC/C=C/c1ccc2ncnc(Nc3ccc(Oc4ccc(C)nc4)c(C)c3)c2c1 [CP-724714]	> 30 µM (inactive)	> 30 µM (inactive)	> 30 µM (inactive)	> 30 µM (inactive)	> 30 µM (inactive)	> 30 µM (inactive)	> 30 µM (inactive)	> 30 µM (inactive)	> 30 µM (inactive)	> 30 µM (inactive)	> 30 µM (inactive)	
Cn1cc(C2=C(c3cn(C4CCN(Cc5ccccn5)CC4)c4ccccc34)C(=O)NC2=O)c2ccccc21 [ENZASTAURIN]			> 30 µM (inactive)		> 30 µM (inactive)		> 30 µM (inactive)	> 30 µM (inactive)		> 30 µM (inactive)		
O=C(Nc1nc2cccc(-c3ccc(CN4CCS(=O)(=O)CC4)cc3)n2n1)C1CC1 [FILGOTINIB]	> 30 µM (inactive)	> 30 µM (inactive)	> 30 µM (inactive)	> 30 µM (inactive)	> 30 µM (inactive)	> 30 µM (inactive)	> 30 µM (inactive)	> 30 µM (inactive)	> 30 µM (inactive)	> 30 µM (inactive)	> 30 µM (inactive)	
O=C(Nc1cc(C(F)(F)F)cc(C(F)(F)F)c1)c1cc(Cl)ccc1O [IMD-0354]	> 30 µM (inactive)	> 30 µM (inactive)	> 30 µM (inactive)	> 30 µM (inactive)	> 30 µM (inactive)	> 30 µM (inactive)	> 30 µM (inactive)	> 30 µM (inactive)	> 30 µM (inactive)	> 30 µM (inactive)	> 30 µM (inactive)	
